Measurements as given in the NIST ThermoML archive (doi:10.1007/s10765-009-0602-6).

Assay: molar heat capacity at constant volume; xn = mol fraction of the nth substance listed
Conditions: x1 = 0.2607

N [ammonia] + O
Conditions | molar heat capacity at constant volume [J/K/mol]
600.42 K, Fluid (supercritical or subcritical phases), Mass density=309.95 kg/m3, isochoric heat capacity | 99.2
600.43 K, Fluid (supercritical or subcritical phases), Mass density=301.94 kg/m3, isochoric heat capacity | 108.54
600.45 K, Fluid (supercritical or subcritical phases), Mass density=308.35 kg/m3, isochoric heat capacity | 94.94
600.48 K, Fluid (supercritical or subcritical phases), Mass density=299.79 kg/m3, isochoric heat capacity | 116.67
600.48 K, Liquid, Isochoric heat capacity | 116.67
600.5 K, Fluid (supercritical or subcritical phases), Mass density=299.79 kg/m3, isochoric heat capacity | 112.59
600.5 K, Fluid (supercritical or subcritical phases), Mass density=303.47 kg/m3, isochoric heat capacity | 94.55
600.51 K, Fluid (supercritical or subcritical phases), Mass density=301.94 kg/m3, isochoric heat capacity | 105.98
600.51 K, Fluid (supercritical or subcritical phases), Mass density=309.95 kg/m3, isochoric heat capacity | 100.78
600.59 K, Fluid (supercritical or subcritical phases), Mass density=299.79 kg/m3, isochoric heat capacity | 104.74
600.59 K, Fluid (supercritical or subcritical phases), Mass density=301.94 kg/m3, isochoric heat capacity | 99.68
600.59 K, Fluid (supercritical or subcritical phases), Mass density=303.47 kg/m3, isochoric heat capacity | 94.4
600.59 K, Fluid (supercritical or subcritical phases), Mass density=309.95 kg/m3, isochoric heat capacity | 100.97
600.62 K, Fluid (supercritical or subcritical phases), Mass density=308.35 kg/m3, isochoric heat capacity | 91.03
600.63 K, Fluid (supercritical or subcritical phases), Mass density=297.6 kg/m3, isochoric heat capacity | 114.9
600.63 K, Liquid, Isochoric heat capacity | 114.9
600.66 K, Fluid (supercritical or subcritical phases), Mass density=303.47 kg/m3, isochoric heat capacity | 95.13
600.67 K, Fluid (supercritical or subcritical phases), Mass density=299.79 kg/m3, isochoric heat capacity | 101.47
600.69 K, Fluid (supercritical or subcritical phases), Mass density=309.95 kg/m3, isochoric heat capacity | 95.49
600.72 K, Fluid (supercritical or subcritical phases), Mass density=297.6 kg/m3, isochoric heat capacity | 112.64
600.77 K, Fluid (supercritical or subcritical phases), Mass density=297.6 kg/m3, isochoric heat capacity | 109.73
600.77 K, Fluid (supercritical or subcritical phases), Mass density=299.79 kg/m3, isochoric heat capacity | 98.67
600.77 K, Fluid (supercritical or subcritical phases), Mass density=305.44 kg/m3, isochoric heat capacity | 101.79
600.8 K, Fluid (supercritical or subcritical phases), Mass density=308.35 kg/m3, isochoric heat capacity | 92.66
600.81 K, Fluid (supercritical or subcritical phases), Mass density=294.44 kg/m3, isochoric heat capacity | 113.83
600.81 K, Liquid, Isochoric heat capacity | 113.83
600.85 K, Fluid (supercritical or subcritical phases), Mass density=294.44 kg/m3, isochoric heat capacity | 111.38
600.85 K, Fluid (supercritical or subcritical phases), Mass density=297.6 kg/m3, isochoric heat capacity | 105.54
600.85 K, Fluid (supercritical or subcritical phases), Mass density=305.44 kg/m3, isochoric heat capacity | 96.13
600.86 K, Fluid (supercritical or subcritical phases), Mass density=299.79 kg/m3, isochoric heat capacity | 99.55
600.9 K, Fluid (supercritical or subcritical phases), Mass density=342.18 kg/m3, isochoric heat capacity | 88.83
600.93 K, Fluid (supercritical or subcritical phases), Mass density=292.97 kg/m3, isochoric heat capacity | 112.06
600.93 K, Liquid, Isochoric heat capacity | 112.06
600.94 K, Fluid (supercritical or subcritical phases), Mass density=292.97 kg/m3, isochoric heat capacity | 106.05
600.94 K, Fluid (supercritical or subcritical phases), Mass density=294.44 kg/m3, isochoric heat capacity | 103.91
600.94 K, Fluid (supercritical or subcritical phases), Mass density=297.6 kg/m3, isochoric heat capacity | 103.82
600.94 K, Fluid (supercritical or subcritical phases), Mass density=305.44 kg/m3, isochoric heat capacity | 99.89
600.94 K, Fluid (supercritical or subcritical phases), Mass density=320.33 kg/m3, isochoric heat capacity | 94.88
600.98 K, Fluid (supercritical or subcritical phases), Mass density=308.35 kg/m3, isochoric heat capacity | 89.18
601.02 K, Fluid (supercritical or subcritical phases), Mass density=305.44 kg/m3, isochoric heat capacity | 99.43
601.02 K, Fluid (supercritical or subcritical phases), Mass density=320.33 kg/m3, isochoric heat capacity | 95.95
601.02 K, Fluid (supercritical or subcritical phases), Mass density=342.18 kg/m3, isochoric heat capacity | 87.43
601.04 K, Fluid (supercritical or subcritical phases), Mass density=292.97 kg/m3, isochoric heat capacity | 101.74
601.05 K, Fluid (supercritical or subcritical phases), Mass density=291.16 kg/m3, isochoric heat capacity | 111.35
601.05 K, Liquid, Isochoric heat capacity | 111.35
601.08 K, Fluid (supercritical or subcritical phases), Mass density=291.16 kg/m3, isochoric heat capacity | 105.11
601.11 K, Fluid (supercritical or subcritical phases), Mass density=292.97 kg/m3, isochoric heat capacity | 94.42
601.11 K, Fluid (supercritical or subcritical phases), Mass density=301.94 kg/m3, isochoric heat capacity | 97.37
601.11 K, Fluid (supercritical or subcritical phases), Mass density=305.44 kg/m3, isochoric heat capacity | 95.1
601.11 K, Fluid (supercritical or subcritical phases), Mass density=320.33 kg/m3, isochoric heat capacity | 90.05
601.12 K, Fluid (supercritical or subcritical phases), Mass density=291.16 kg/m3, isochoric heat capacity | 93.41
601.16 K, Fluid (supercritical or subcritical phases), Mass density=188.05 kg/m3, isochoric heat capacity | 106.16
601.16 K, Liquid, Isochoric heat capacity | 102.61
601.19 K, Fluid (supercritical or subcritical phases), Mass density=301.94 kg/m3, isochoric heat capacity | 94.4
601.19 K, Fluid (supercritical or subcritical phases), Mass density=305.44 kg/m3, isochoric heat capacity | 94.51
601.19 K, Fluid (supercritical or subcritical phases), Mass density=320.33 kg/m3, isochoric heat capacity | 88.79
601.2 K, Fluid (supercritical or subcritical phases), Mass density=188.05 kg/m3, isochoric heat capacity | 93.94
601.21 K, Fluid (supercritical or subcritical phases), Mass density=291.16 kg/m3, isochoric heat capacity | 94.65
601.21 K, Fluid (supercritical or subcritical phases), Mass density=292.97 kg/m3, isochoric heat capacity | 99.73
601.24 K, Fluid (supercritical or subcritical phases), Mass density=342.18 kg/m3, isochoric heat capacity | 88.83
601.28 K, Fluid (supercritical or subcritical phases), Mass density=320.33 kg/m3, isochoric heat capacity | 91.03
601.29 K, Fluid (supercritical or subcritical phases), Mass density=301.94 kg/m3, isochoric heat capacity | 98.17
601.3 K, Fluid (supercritical or subcritical phases), Mass density=188.05 kg/m3, isochoric heat capacity | 86.48
601.34 K, Fluid (supercritical or subcritical phases), Mass density=285.71 kg/m3, isochoric heat capacity | 107.97
601.34 K, Fluid (supercritical or subcritical phases), Mass density=301.94 kg/m3, isochoric heat capacity | 95.7
601.34 K, Liquid, Isochoric heat capacity | 107.97
601.37 K, Fluid (supercritical or subcritical phases), Mass density=285.71 kg/m3, isochoric heat capacity | 99.59
601.37 K, Fluid (supercritical or subcritical phases), Mass density=294.44 kg/m3, isochoric heat capacity | 105.52
601.37 K, Fluid (supercritical or subcritical phases), Mass density=297.6 kg/m3, isochoric heat capacity | 102.84
601.37 K, Fluid (supercritical or subcritical phases), Mass density=342.18 kg/m3, isochoric heat capacity | 89.33
601.38 K, Fluid (supercritical or subcritical phases), Mass density=188.05 kg/m3, isochoric heat capacity | 66.72
601.39 K, Fluid (supercritical or subcritical phases), Mass density=291.16 kg/m3, isochoric heat capacity | 92.22
601.45 K, Fluid (supercritical or subcritical phases), Mass density=285.71 kg/m3, isochoric heat capacity | 94.44
601.45 K, Fluid (supercritical or subcritical phases), Mass density=294.44 kg/m3, isochoric heat capacity | 102.41
601.45 K, Fluid (supercritical or subcritical phases), Mass density=297.6 kg/m3, isochoric heat capacity | 99.66
601.45 K, Fluid (supercritical or subcritical phases), Mass density=301.94 kg/m3, isochoric heat capacity | 92.5
601.46 K, Fluid (supercritical or subcritical phases), Mass density=299.79 kg/m3, isochoric heat capacity | 97
601.47 K, Fluid (supercritical or subcritical phases), Mass density=320.33 kg/m3, isochoric heat capacity | 92.7
601.5 K, Fluid (supercritical or subcritical phases), Mass density=188.05 kg/m3, isochoric heat capacity | 72.1
601.53 K, Fluid (supercritical or subcritical phases), Mass density=299.79 kg/m3, isochoric heat capacity | 99
601.54 K, Fluid (supercritical or subcritical phases), Mass density=285.71 kg/m3, isochoric heat capacity | 89.22
601.54 K, Fluid (supercritical or subcritical phases), Mass density=297.6 kg/m3, isochoric heat capacity | 101.22
